US4939256A, “Novel platinum complex, antineoplastic agent containing the same, and intermediate therefor” (Kanebo Ltd., priority 1988, dated 1990)

How the values were obtained:
Leukemia P388 = assay: Experiment 1: Test of antitumor activity (increase in life span of tumor-bearing mice); assay type: in vivo, BDF1 male mice; conditions: intraperitoneal, P388 in BDF1 mice; for Increase in life span (ILS %): observed until 30th day
Experimental: (a) Animals: BDF1 male mice (6 week age, weighing 22 to 25 g, 4 animals per each group)
(b) Tumor cells: Leukemia P388
Tumor cells (1×10^6 per mouse) were intraperitoneally inoculated into mice. After 24 hours, a solution of each test compound in physiological saline solution was intraperitoneally administered to the mice. In control mice, only physiological saline solution was intraperitoneally administered.
Survival days of the mice was observed until 30th day after the inoculation of tumor cells. Mean survival days (X) in the mice administered with test compound and mean survival days (Y) in the control mice were measured, and the increase in life span (ILS %) was calculated by the following equation: [formula]

kidney = assay: Experiment 3: Side effect on kidney (blood urea nitrogen value); assay type: in vivo, BDF1 male mice; conditions: intraperitoneal, 4th day after administration, versus control mice
Experimental: It was studied in the blood urea nitrogen value (BUN value) as an index.
(§1) (a) Animal: BDF1 male mice (6 week age, weighing 22-25 g, 5 animals per each group)
Each test compound was dissolved in a physiological saline solution, and the solution (0.1 ml/10 g body weight) was intraperitoneally administered. In the control mice, only the physiological saline solution (0.1 ml/10 g body weight) was intraperitoneally administered. On the 4th day after the administration, the test compound-administered mice and the control mice were bleeded from the femoral artery, and the collected blood was centrifuged at 3,000 r.p.m. at 4° C. for 15 minutes to give a test serum. BUN value in the test serum was measured by a urease indophenol method using a kit for measuring urea nitrogen (Urea NB-Test Wako, manufactured by Wako Pure Chemical Industries, Ltd.). That is, the above test serum (20 μl) was taken in a test tube and thereto was added color reagent A [a mixture of a urease solution (one part by volume) and phosphate buffer (pH 7.0, 20 parts by volume), 2.0 ml], and the mixture was mixed well and incubated at 37° C. for 15 minutes. […]
The absorbance of the standard solution and test solution was measured at 570 nm with a spectrophotometer with reference to the blank solution as a control, and BUN value in the test serum was calculated by the following equation: [formula] […]

[1] = prior art, clinically used; cited from earlier work
[2] = test system: Cisplatin-resistant L1210 cells (L1210/DDP) and L1210 cells; assay: Experiment 2: Effects on cisplatin-resistant tumor cells (growth inhibition, resistance index); assay type: cell-based; conditions: L1210/DDP versus L1210, from IC50 after 48 hours; for Resistance index, maximum: maximum of 2 to 4 tests; for Resistance index, Mean: mean of 2 to 4 tests; for Resistance index, minimum: minimum of 2 to 4 tests
Experimental: 2. Cisplatin-resistant L1210 cells (hereinafter, referred to as L1210/DDP), which is available from Cancer Chemotherapy Center, Japanese Foundation for Cancer Research
RPMI-1640 medium containing 10% (v/v) fetal bovine serum, which was prepared as follows:
RPMI-1640 (manufactured by GIBCO) (10.4 g), sodium hydrogen carbonate (1.3 g), streptomycin sulfate ([…]), penicillin G potassium ([…]) and a 1% aqueous solution of β-mercaptoethanol (40 μl) were dissolved in distilled water (one liter). To this mixture (90 parts by volume) was added fetal bovine serum (manufactured by GIBCO) (10 parts by volume) to give RPMI-1640 medium containing 10% (v/v) fetal bovine serum (hereinafter, referred to as "serum-containing RPMI-1640 medium").
L1210 cells or L1210/DDP cells were added to the serum-containing RPMI-1640 medium to prepare a cell suspension (3×10^5 cells/ml). The cell suspension (each 1 ml) was seeded onto a microplate (Falcon 3047, manufactured by Falcon) and cultivated in air containing 5% CO2 gas at 37° C. (one group, 3 wells). After cultivating for 24 hours, a solution of each test compound (1 ml) (which was prepared by dissolving each test compound in the serum-containing RPMI-1640 medium in various concentrations) was added to the medium, and the mixture was cultivated under the same conditions for 48 hours. After the cultivation, the number of viable cells was counted by Trypan Blue exclusion test method, and the mean number of viable cells in each group was calculated. Besides, in the control group, the above was repeated by using the serum-containing RPMI-1640 medium instead of the solution of test compound, and the mean number of viable cells in the control group was calculated likewise. From the mean number of viable cells in various concentration of test compound and the mean number of viable cells in the control group, the concentration required for 50% inhibition of growth (IC50) was calculated by probit method. Then, the resistance index of test compound was calculated by the following equation: [formula]
The above test was repeated for 2 to 4 times, and the mean resistance index was obtained.

BDF1 male mice = assay: Experiment 4: Acute toxicity (LD50); assay type: in vivo; conditions: intraperitoneal, until 14th day, Weil method
Experimental: as §1
Each test compound was dissolved or suspended in a physiological saline solution, and the solution or suspension (0.1 ml/10 g body weight) was intraperitoneally administered to mice. The number of mice that died was counted until 14th day after administration of test compound, and the acute toxicity (LD50) was calculated by Weil method.

Molecule | Increase in life span (ILS %) (Leukemia P388; 25 mg/kg) | Increase in life span (ILS %) (Leukemia P388; 50 mg/kg) | Increase in life span (ILS %) (Leukemia P388; 100 mg/kg) | dose showing maximum increase in life span in Experiment 1 (Leukemia P388) | other results
a mixture of α-glycolato-(3RS)-3-aminopyrrolidine platinum (II) (Isomer a-1) and β-glycolato-(3RS)-3-aminopyrrolidine platinum (II) (Isomer a-2) [Platinum complex A-1] | 74% | 167% | -43% | 50 mg/kg | –
N.N.[Cl][Pt][Cl] [Cisplatin, cisdiamminedichloroplatinum (II), reference compound] | – | – | – | 10 mg/kg | Increase in life span (ILS %) (Leukemia P388; 5 mg/kg): 108%; Increase in life span (ILS %) (Leukemia P388; 10 mg/kg): 167%; Increase in life span (ILS %) (Leukemia P388; 20 mg/kg): -11%; Rate of change of BUN value (%) (kidney; 10 mg/kg): +106%; Rate of change of BUN value (%) (kidney; 15 mg/kg): +128%; antineoplastic activity, in words [1]: excellent antineoplastic activity
O=C1C[O][Pt]2([NH]C3CC[N]2C3)[O]1 (racemic) [Platinum complex A-2, α-glycolato-(3RS)-3-aminopyrrolidine platinum (II)] | 108% | 172% | 115% | 50 mg/kg | –
a mixture of α-glycolato-(3RS)-3-aminopiperidine platinum (II) (Isomer b-1) and β-glycolato-(3RS)-3-aminopiperidine platinum (II) (Isomer b-2) [Platinum complex B-1] | 131% | 174% | -45% | 50 mg/kg | Resistance index, maximum [2]: 5.4; Resistance index, Mean [2]: 4.3; Resistance index, minimum [2]: 3.2; LD50 (BDF1 male mice): 57.0 mg/kg
a mixture of α-glycolato-(3RS)-3-aminopyrrolidine platinum (II) (Isomer a-1) and β-glycolato-(3RS)-3-aminopyrrolidine platinum (II) (Isomer a-2) [Platinum complex A-3] | 111% | 170% | 26% | 50 mg/kg | Resistance index, maximum ([2]; 2880 min): 4.6; Resistance index, Mean ([2]; 2880 min): 4.6; Resistance index, minimum ([2]; 2880 min): 4.6; LD50 (BDF1 male mice; 20160 min): 107.0 mg/kg
